Key:
Format in all cases: biochemical
Human PI3K alpha = target: T1, Human PI3K alpha (Homo sapiens, UniProt P42336); assay: Human PI3K alpha enzyme assay (HTRF); conditions: concentration not given, b1387 states 1.1 μM for PI3K α and β; for inhibition at 1.1 µM: read-out: p110 alpha Percent Inhibition
T1 construct: His (N); host or cells: SF9 insect cells (baculovirus)

Human PI3K gamma = target: T2, Human PI3K gamma (Homo sapiens, UniProt P48736); assay: Human PI3K gamma enzyme assay (HTRF); conditions: concentration not given, b1389 states 1.0 μM for PI3K δ and γ; for inhibition at 1 µM: read-out: p110 gamma Percent Inhibition
T2 construct: His (N); host or cells: SF9 insect cells (baculovirus)
Method in brief: (§1)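 Compounds were mixed with 25 uM ATP, then with 3.5 uM di-C8 PI(4,5)P2 and His-tagged PI3K isoform (β 5.25 nM, δ 0.75 nM, γ 5 nM) at pH 7.00. After 30 min at room temperature, EDTA stopped the reaction and PIP3 was measured by HTRF over 1 h.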

Human PI3K beta = target: T3, Human PI3K beta (Homo sapiens, UniProt P42338); assay: Human PI3K beta enzyme assay (HTRF); conditions: concentration not given, b1387 states 1.1 μM for PI3K α and β; for inhibition at 1.1 µM: read-out: p110 beta Percent Inhibition
T3 construct: His (N); host or cells: SF9 insect cells (baculovirus)
Method in brief: as §1

Human PI3K delta = target: T4, Human PI3K delta (Homo sapiens, UniProt O00329); assay: Human PI3K delta enzyme assay (HTRF); conditions: concentration not given, b1389 states 1.0 μM for PI3K δ and γ; for inhibition at 1 µM: read-out: p110 delta Percent Inhibition
T4 construct: His (N); host or cells: SF9 insect cells (baculovirus)
Method in brief: as §1

T1 sequence (P42336 whole entry): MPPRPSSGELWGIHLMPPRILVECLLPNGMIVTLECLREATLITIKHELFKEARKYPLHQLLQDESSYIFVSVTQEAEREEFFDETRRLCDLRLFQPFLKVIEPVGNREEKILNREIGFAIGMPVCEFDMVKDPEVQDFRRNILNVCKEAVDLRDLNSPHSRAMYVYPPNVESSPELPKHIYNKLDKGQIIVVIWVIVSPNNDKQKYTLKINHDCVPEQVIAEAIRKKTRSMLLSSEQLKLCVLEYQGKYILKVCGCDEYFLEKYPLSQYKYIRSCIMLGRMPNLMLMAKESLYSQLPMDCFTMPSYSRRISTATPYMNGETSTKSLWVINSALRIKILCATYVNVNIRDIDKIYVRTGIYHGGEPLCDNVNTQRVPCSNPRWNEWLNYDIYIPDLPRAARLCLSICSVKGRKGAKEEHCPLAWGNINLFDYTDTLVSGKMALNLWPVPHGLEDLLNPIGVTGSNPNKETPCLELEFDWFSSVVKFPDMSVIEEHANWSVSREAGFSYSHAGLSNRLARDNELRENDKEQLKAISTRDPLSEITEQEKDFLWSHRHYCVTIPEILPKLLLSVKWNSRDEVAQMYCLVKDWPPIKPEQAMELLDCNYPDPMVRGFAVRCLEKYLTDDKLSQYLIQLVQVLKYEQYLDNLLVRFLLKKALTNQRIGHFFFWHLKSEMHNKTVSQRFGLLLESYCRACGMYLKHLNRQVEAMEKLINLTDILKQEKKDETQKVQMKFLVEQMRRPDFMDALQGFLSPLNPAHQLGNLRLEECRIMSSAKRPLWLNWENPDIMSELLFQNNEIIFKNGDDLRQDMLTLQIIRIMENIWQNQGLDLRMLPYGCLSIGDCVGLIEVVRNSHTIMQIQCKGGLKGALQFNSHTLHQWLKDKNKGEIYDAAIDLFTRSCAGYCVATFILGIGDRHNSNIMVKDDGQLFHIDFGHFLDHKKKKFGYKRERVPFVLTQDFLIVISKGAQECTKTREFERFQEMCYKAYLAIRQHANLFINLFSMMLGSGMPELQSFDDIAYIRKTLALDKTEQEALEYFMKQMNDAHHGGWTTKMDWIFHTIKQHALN
T1 sequence (P27986 whole entry partner): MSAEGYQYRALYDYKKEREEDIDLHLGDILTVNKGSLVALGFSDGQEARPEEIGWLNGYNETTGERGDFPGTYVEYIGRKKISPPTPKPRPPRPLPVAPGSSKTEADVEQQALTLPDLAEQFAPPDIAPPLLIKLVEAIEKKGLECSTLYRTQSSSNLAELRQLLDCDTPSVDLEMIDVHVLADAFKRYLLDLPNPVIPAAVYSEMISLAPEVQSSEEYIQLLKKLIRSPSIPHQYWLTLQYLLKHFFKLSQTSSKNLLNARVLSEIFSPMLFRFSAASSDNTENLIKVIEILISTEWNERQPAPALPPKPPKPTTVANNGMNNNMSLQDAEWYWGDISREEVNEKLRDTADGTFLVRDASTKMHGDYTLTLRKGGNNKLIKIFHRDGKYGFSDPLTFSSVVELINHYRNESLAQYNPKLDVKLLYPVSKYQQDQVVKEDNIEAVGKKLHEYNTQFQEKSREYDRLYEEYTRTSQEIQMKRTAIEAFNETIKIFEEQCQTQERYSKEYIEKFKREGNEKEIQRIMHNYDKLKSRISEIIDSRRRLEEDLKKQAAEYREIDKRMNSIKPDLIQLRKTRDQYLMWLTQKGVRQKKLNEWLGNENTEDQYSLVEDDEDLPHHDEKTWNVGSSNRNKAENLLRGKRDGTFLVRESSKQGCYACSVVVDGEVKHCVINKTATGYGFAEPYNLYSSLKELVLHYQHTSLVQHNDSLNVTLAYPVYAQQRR
T4 sequence (O00329 whole entry): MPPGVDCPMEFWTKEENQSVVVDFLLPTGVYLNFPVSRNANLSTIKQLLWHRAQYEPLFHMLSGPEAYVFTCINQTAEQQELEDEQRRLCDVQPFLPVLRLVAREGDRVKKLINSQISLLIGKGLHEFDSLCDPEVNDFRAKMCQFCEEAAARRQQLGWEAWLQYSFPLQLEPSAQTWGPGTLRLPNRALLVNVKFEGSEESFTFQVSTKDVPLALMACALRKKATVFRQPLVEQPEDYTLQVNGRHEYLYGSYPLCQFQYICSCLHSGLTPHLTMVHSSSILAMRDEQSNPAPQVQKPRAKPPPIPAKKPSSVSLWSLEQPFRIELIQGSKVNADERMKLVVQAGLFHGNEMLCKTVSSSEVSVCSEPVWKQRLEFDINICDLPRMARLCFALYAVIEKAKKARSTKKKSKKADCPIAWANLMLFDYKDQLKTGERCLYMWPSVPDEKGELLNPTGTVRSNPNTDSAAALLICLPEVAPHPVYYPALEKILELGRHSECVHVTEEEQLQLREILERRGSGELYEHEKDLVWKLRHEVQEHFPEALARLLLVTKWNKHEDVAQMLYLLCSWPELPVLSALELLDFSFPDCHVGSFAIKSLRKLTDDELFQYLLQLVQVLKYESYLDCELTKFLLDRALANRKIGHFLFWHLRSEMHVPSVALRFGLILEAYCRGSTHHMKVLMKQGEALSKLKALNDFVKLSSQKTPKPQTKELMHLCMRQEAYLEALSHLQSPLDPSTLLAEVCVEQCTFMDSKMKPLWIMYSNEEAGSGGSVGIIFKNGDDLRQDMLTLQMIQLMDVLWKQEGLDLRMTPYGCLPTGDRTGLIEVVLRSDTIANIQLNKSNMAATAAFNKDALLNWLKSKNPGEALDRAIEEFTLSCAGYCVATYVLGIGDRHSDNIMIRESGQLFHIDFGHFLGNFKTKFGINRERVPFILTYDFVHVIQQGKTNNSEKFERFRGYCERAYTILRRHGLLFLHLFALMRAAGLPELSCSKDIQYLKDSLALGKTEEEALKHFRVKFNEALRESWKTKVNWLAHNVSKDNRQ
T4 sequence (P27986 whole entry partner): as the sequence (P27986 whole entry partner) above
T3 sequence (P42338 whole entry): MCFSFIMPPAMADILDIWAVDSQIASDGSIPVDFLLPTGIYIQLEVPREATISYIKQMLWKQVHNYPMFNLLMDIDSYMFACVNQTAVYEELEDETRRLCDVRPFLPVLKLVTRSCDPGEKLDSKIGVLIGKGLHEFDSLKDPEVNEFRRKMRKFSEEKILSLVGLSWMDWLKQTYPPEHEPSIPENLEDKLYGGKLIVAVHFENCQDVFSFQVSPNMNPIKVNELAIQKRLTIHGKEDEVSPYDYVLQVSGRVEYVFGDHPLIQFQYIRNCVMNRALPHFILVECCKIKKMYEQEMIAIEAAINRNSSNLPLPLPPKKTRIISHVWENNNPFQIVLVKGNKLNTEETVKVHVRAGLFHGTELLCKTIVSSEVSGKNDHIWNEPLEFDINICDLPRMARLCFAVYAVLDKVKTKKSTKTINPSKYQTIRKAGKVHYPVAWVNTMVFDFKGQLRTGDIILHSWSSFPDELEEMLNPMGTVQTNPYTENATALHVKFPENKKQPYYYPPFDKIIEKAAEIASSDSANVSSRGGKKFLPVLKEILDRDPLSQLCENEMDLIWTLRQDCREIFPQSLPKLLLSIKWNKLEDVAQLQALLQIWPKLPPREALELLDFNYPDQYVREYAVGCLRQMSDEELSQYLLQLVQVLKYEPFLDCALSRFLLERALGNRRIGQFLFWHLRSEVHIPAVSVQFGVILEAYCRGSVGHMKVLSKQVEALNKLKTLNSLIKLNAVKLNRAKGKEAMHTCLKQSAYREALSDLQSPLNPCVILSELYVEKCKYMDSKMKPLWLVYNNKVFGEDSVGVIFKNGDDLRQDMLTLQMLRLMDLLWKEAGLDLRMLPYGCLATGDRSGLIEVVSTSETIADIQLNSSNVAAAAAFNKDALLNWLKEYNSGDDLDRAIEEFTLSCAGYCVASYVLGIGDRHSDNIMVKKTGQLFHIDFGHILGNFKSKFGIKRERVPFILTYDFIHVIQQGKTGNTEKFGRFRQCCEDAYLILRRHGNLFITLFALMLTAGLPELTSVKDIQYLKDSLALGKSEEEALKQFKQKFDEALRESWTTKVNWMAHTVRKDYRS
T3 sequence (P27986 whole entry partner): as the sequence (P27986 whole entry partner) above
T2 sequence (P48736 whole entry): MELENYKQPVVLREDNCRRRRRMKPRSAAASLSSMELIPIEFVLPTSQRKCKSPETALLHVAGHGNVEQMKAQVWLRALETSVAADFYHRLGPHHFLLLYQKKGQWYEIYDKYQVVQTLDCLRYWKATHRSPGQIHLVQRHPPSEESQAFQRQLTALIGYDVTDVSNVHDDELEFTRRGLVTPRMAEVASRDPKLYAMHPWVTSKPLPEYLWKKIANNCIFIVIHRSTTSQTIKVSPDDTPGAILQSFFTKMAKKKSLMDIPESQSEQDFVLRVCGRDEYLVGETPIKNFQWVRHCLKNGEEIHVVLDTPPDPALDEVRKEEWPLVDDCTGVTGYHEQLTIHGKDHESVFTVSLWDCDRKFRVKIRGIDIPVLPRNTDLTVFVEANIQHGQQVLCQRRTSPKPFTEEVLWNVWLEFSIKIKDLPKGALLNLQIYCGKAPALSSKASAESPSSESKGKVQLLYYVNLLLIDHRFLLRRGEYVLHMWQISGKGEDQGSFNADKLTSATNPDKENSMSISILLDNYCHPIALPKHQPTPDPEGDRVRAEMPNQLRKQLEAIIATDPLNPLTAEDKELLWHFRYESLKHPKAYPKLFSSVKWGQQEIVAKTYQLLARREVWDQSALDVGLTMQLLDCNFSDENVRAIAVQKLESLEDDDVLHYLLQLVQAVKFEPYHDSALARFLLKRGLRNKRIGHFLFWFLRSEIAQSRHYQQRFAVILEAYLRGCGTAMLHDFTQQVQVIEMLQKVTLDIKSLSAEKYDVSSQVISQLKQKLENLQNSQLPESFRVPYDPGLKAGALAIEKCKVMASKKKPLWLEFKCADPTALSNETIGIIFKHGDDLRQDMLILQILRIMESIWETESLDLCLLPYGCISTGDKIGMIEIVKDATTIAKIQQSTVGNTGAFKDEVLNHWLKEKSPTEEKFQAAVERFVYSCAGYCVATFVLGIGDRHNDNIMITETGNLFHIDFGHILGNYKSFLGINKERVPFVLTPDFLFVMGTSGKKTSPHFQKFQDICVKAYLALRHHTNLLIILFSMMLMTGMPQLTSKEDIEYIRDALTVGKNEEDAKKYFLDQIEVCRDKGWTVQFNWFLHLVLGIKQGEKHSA

| inhibition at 1.1 µM (Human PI3K alpha) | inhibition at 1 µM (Human PI3K gamma) | inhibition at 1.1 µM (Human PI3K beta) | inhibition at 1 µM (Human PI3K delta) | p110 alpha Percent Inhibition (Human PI3K alpha) | p110 gamma Percent Inhibition (Human PI3K gamma) | p110 beta Percent Inhibition (Human PI3K beta) | p110 delta Percent Inhibition (Human PI3K delta) | SMILES |
| --- | --- | --- | --- | --- | --- | --- | --- | --- |
| 15% | 8% | 70% | 59% | – | – | – | – | Cc1ccc(C(O)c2cc(-c3ccncc3)sc2-c2nnc[nH]2)cc1C (stereo not drawn) [Compound 174] |
| 19% | 7% | 85% | 36% | – | – | – | – | OC(c1cc(-c2ccncc2)sc1-c1nnc[nH]1)c1ccnc2ccccc12 (stereo not drawn) [Compound 175] |
| 20% | 38% | 109% | 88% | – | – | – | – | Oc1cc(-c2sc(-c3ccncc3)nc2Cc2ccc(Cl)cc2)[nH]n1 [Compound 178, 5-(4-(4-chlorobenzyl)-2-(pyridin-4-yl)thiazol-5-yl)-1H-pyrazol-3-ol] |
| -2% | 3% | 16% | 9% | – | – | – | – | Cc1n[nH]c(C)c1-c1sc(-c2ccncc2)nc1Cc1ccc(Cl)cc1 [Compound 183] |
| 76% | 16% | 112% | 112% | – | – | – | – | CC(=O)Nc1cc(-c2cc(C(NCCN(C)C)c3ccc(Cl)cc3)c(-c3nnc[nH]3)s2)ccn1 (stereo not drawn) [Compound 184] |
| 16% | 9% | 97% | 50% | – | – | – | – | CN(C)C(c1ccc(Cl)cc1)c1cc(-c2ccnc(N)c2)sc1-c1nnc[nH]1 (stereo not drawn) [Compound 185] |
| 68% | 65% | 109% | 92% | – | – | – | – | COc1cc(C(O)c2cc(-c3ccncc3)sc2-c2ncn[nH]2)c(F)cc1Cl (stereo not drawn) [Compound 186] |
| 32% | 25% | 95% | 77% | – | – | – | – | OC(c1ccc(F)cc1Cl)c1cc(-c2ccncc2)sc1-c1nnc[nH]1 (stereo not drawn) [Compound 187] |
| 47% | 36% | 94% | 82% | – | – | – | – | Cc1ccc(F)c(C(O)c2cc(-c3ccncc3)sc2-c2nnc[nH]2)c1 (stereo not drawn) [Compound 188] |
| 26% | 30% | 97% | 90% | – | – | – | – | COc1ccc(C(O)c2cc(-c3ccncc3)sc2-c2nnc[nH]2)cc1Cl (stereo not drawn) [Compound 191] |
| 26% | 13% | 69% | 46% | – | – | – | – | OC(c1ccccc1C(F)(F)F)c1cc(-c2ccncc2)sc1-c1nnc[nH]1 (stereo not drawn) [Compound 193] |
| 15% | 4% | 23% | 19% | – | – | – | – | COc1cnc(Cl)cc1-c1cc(C(O)c2ccc(Cl)cc2)c(-c2nnc[nH]2)s1 (stereo not drawn) [Compound 197] |
| 21% | 16% | 64% | 42% | – | – | – | – | OC(c1ccc(F)c(F)c1)c1cc(-c2ccncc2)sc1-c1nnc[nH]1 (stereo not drawn) [Compound 199] |
| 12% | 8% | 80% | 54% | – | – | – | – | COc1ccc(C(O)c2cc(-c3ccncc3)sc2-c2nnc[nH]2)cc1C (stereo not drawn) [Compound 202] |
| – | – | – | – | 10% | 16% | 88% | 67% | OC(c1cc(-c2ccncc2)sc1-c1nnc[nH]1)c1c(F)ccc2ccccc12 (stereo not drawn) [Compound 203] |
| 42% | 64% | 114% | 83% | – | – | – | – | O=C(O)c1sc(-c2ccncc2)cc1C(O)c1ccc2ccccc2c1 (stereo not drawn) [Compound 205, 3-[hydroxy(2-naphthyl)methyl]-5-pyridin-4-ylthiophene-2-carboxylic acid] |
| 90% | 11% | 96% | 106% | – | – | – | – | CC(=O)Nc1cc(-c2cc(C(c3ccc(Cl)cc3)n3cccn3)c(-c3nnc[nH]3)s2)ccn1 (stereo not drawn) [Compound 206] |
| 27% | 9% | 83% | 51% | – | – | – | – | OC(c1ccc(-c2ccncc2)cc1)c1cc(-c2ccncc2)sc1-c1nnc[nH]1 (stereo not drawn) [Compound 207] |
| – | – | – | – | 42% | 47% | 108% | 107% | OC(c1ccc2ccccc2c1)c1cc(-c2ccncc2)sc1-c1nnc[nH]1 (stereo not drawn) [Compound 208] |
| 111% | 13% | 111% | 106% | – | – | – | – | CC(=O)Nc1cc(-c2cc(C(N=[N+]=[N-])c3ccc(Cl)cc3)c(-c3nnc[nH]3)s2)ccn1 (stereo not drawn) [Compound 211] |

The next lines start with the compound.

| SMILES | inhibition at 1.1 µM (Human PI3K alpha) | inhibition at 1 µM (Human PI3K gamma) | inhibition at 1.1 µM (Human PI3K beta) | inhibition at 1 µM (Human PI3K delta) | p110 alpha Percent Inhibition (Human PI3K alpha) | p110 gamma Percent Inhibition (Human PI3K gamma) | p110 beta Percent Inhibition (Human PI3K beta) | p110 delta Percent Inhibition (Human PI3K delta) |
| --- | --- | --- | --- | --- | --- | --- | --- | --- |
| N#Cc1c(-c2ccnnc2)sc(-c2nnc[nH]2)c1C(c1ccc2ccccc2c1)N1CCNCC1 (stereo not drawn) [Compound 172] | 28% | 6% | 101% | 60% | – | – | – | – |
| CC(=O)Nc1cc(-c2cc(C(OCC3CCCC3)c3ccc(Cl)cc3)c(-c3nnc[nH]3)s2)ccn1 (stereo not drawn) [Compound 173] | 69% | 3% | 67% | 83% | – | – | – | – |
| CC(=O)Nc1cc(-c2nc(Cc3ccc4ccccc4c3)c(C(=O)O)s2)ccn1 [Compound 177, 2-(2-acetamidopyridin-4-yl)-4-(naphthalen-2-ylmethyl)thiazole-5-carboxylic acid] | 79% | 34% | 100% | 106% | – | – | – | – |
| COC(=O)Nc1cc(-c2sc(-c3nnc[nH]3)c(Cc3ccc4ccccc4c3)c2C#N)ccn1 [Compound 179] | 29% | 5% | 60% | 89% | – | – | – | – |
| COC(=O)Nc1cc(-c2sc(C(=O)O)c(Cc3ccc4ccccc4c3)c2C#N)ccn1 [Compound 180] | 60% | 21% | 102% | 102% | – | – | – | – |
| CC(=O)Nc1cc(-c2cc(C(c3ccc(Cl)cc3)N3CC(N(C)C)C3)c(-c3nnc[nH]3)s2)ccn1 (stereo not drawn) [Compound 181, N-{4-[4-{(4-chlorophenyl)[3-(dimethylamino)azetidin-1-yl]-methyl}-5-(4H-1,2,4-triazol-3-yl)-2-thienyl]pyridin-2-yl}acetamide] | – | – | – | – | 85% | 35% | 91% | 108% |
| CC(=O)Nc1cc(-c2cc(C(OCC3CNC3)c3ccc(Cl)cc3)c(-c3nnc[nH]3)s2)ccn1 (stereo not drawn) [Compound 182] | 83% | 45% | 100% | 107% | – | – | – | – |
| Clc1ccc(Cc2nc(-c3ccncc3)sc2-c2nnn[nH]2)cc1 [Compound 190, 4-(4-chlorobenzyl)-2-(pyridin-4-yl)-5-(1H-tetrazol-5-yl)thiazole] | 3% | 7% | 60% | 33% | – | – | – | – |
| COC(=O)Nc1cc(-c2sc(-c3nnc[nH]3)c(C(O)c3ccc(Cl)cc3)c2C#N)ccn1 (stereo not drawn) [Compound 195, Methyl {4-[4-[(4-chlorophenyl)(hydroxy)methyl]-3-cyano-5-(4H-1,2,4-triazol-3-yl)-2-thienyl]pyridin-2-yl}carbamate] | 52% | 8% | 74% | 88% | – | – | – | – |
| CC(=O)Nc1cc(-c2cc(C(c3ccc(Cl)cc3)N3CCN(C(C)=O)CC3)c(-c3nnc[nH]3)s2)ccn1 (stereo not drawn) [Compound 196] | 69% | 12% | 91% | 105% | – | – | – | – |
| N#Cc1c(-c2ccnnc2)sc(-c2nnc[nH]2)c1C(O)c1ccc2ccccc2c1 (stereo not drawn) [Compound 198] | 18% | 35% | 108% | 70% | – | – | – | – |
| CC(=O)Nc1cc(-c2cc(C(c3ccc(Cl)cc3)N3CC(N)C3)c(-c3nnc[nH]3)s2)ccn1 (stereo not drawn) [Compound 200] | 101% | 60% | 118% | 111% | – | – | – | – |
| CC(=O)Nc1cc(-c2cc(C(c3ccc(Cl)cc3)N3CC(O)C3)c(-c3nnc[nH]3)s2)ccn1 (stereo not drawn) [Compound 201] | 74% | 37% | 105% | 110% | – | – | – | – |
| CN[C@@H]1CCN(C(c2ccc(Cl)cc2)c2cc(-c3ccnc(NC(C)=O)c3)sc2-c2nnc[nH]2)C1 (stereo partly drawn) [Compound 209] | 92% | 34% | 107% | 108% | – | – | – | – |
| O=C(O)c1sc(-c2ccncc2)cc1Cc1ccc2ccccc2c1 [Compound 210, 3-(2-naphthylmethyl)-5-pyridin-4-ylthiophene-2-carboxylic acid] | 52% | 68% | 110% | 92% | – | – | – | – |
| CC(=O)Nc1cc(-c2cc(C(c3ccc(Cl)cc3)N3CC[C@@H](O)C3)c(-c3nnc[nH]3)s2)ccn1 (stereo partly drawn) [Compound 212] | 87% | 38% | 109% | 112% | – | – | – | – |

Reference: patent US8796268B2, “Heteroaryls and uses thereof” (Millennium Pharmaceuticals, Inc., priority 2010, dated 2014)
